Data on three molecules can be found in patent US4002752A, “Piperazinylimino rifamycins” (Gruppo Lepetit S.p.A., priority 1975, dated 1977).

One data set deals with Staphylococcus aureus. Description: experimental Staphylococcus aureus infections in mice. Format: in vivo. The following applies: po; Staphylococcus aureus infection in mice.
A short description of a further data set: in vivo. The following applies: mouse.
In data set [1] the test system is Mycobacterium tuberculosis H37 Rv. Description: minimal inhibitory concentration in vitro against Mycobacterium tuberculosis H37 Rv. Format: cell-based. The following applies: H37RV. As to the method:
For instance, the value of the minimal inhibitory concentration in vitro of the "cyclopentyl derivative" against Mycobacterium tuberculosis H37 Rv is 0.05 μg/ml, while that of rifampicin is 0.5 μg/ml.

For data set [2] the test system is unchanged. Description: survival time of mice infected with Mycobacterium tuberculosis H37 Rv. Format: in vivo. The following applies: once a week administration per os versus daily administration of rifampicin at the same dose level. The text has this:
The unexpected biological characteristics of the novel rifamycins have been evidenced by considering the survival time after a daily administration of rifampicin in comparison with a once a week administration of the same dose level per os of 3-(4-cyclopentyl-1-piperazinyl)iminomethylrifamycin SV (hereinafter referred to as "cyclopentyl derivative") to mice infected with Mycobacterium tuberculosis H37 Rv.

A further data set can be described thus: toxicity in mice (LD50). The following applies: mouse, in vivo.

Molecules are shown by their SMILES. In brackets after ≈: the same amount, converted by molar mass. Bounds are passed on as bounds.

For the molecule `COC1C=COC2(C)Oc3c(C)c(O)c4c(O)c(c(C=NN5CCN(C6CCC6)CC5)c(O)c4c3C2=O)NC(=O)C(C)=CC=CC(C)C(O)C(C)C(O)C(C)C(OC(C)=O)C1C` (stereo not drawn) [cyclobutyl derivative, 3-(4-cyclobutyl-1-piperazinyl)iminomethylrifamycin SV], in the data set on Staphylococcus aureus, the ED50 (as a rule, the midpoint of the dose-response relation) came out at 0.16 mg/kg. Further, the LD50 (in general, the dose expected to kill half of the subjects tested) in “in vivo” (ip) is more than 650 mg/kg; in the data set “in vivo” (po) it was more than 2000 mg/kg.
Turning to `COC1C=COC2(C)Oc3c(C)c(O)c4c(O)c(c(C=NN5CCN(C6CCCC6)CC5)c(O)c4c3C2=O)NC(=O)C(C)=CC=CC(C)C(O)C(C)C(O)C(C)C(OC(C)=O)C1C` (stereo not drawn) [cyclopentyl derivative, 3-(4-cyclopentyl-1-piperazinyl)iminomethylrifamycin SV], in data set [1], the MIC (commonly the least concentration at which growth counts as inhibited) came out at 0.05 µg/mL (≈ 0.057 µM). Besides, in data set [2], the survival time result was “about the same survival time”. In addition, the LD50 in the data set “in vivo” (ip) is more than 750 mg/kg; in “in vivo” (po) it was more than 2000 mg/kg.
`CO[C@H]1/C=C/O[C@@]2(C)Oc3c(C)c(O)c4c(O)c(c(/C=N/N5CCN(C)CC5)c(O)c4c3C2=O)NC(=O)/C(C)=C\C=C\[C@H](C)[C@H](O)[C@@H](C)[C@@H](O)[C@@H](C)[C@H](OC(C)=O)[C@@H]1C` [rifampicin]: the values for the 50% lethal dose (LD50) in the data set “toxicity in mice (LD50)” (ip) and in the data set “toxicity in mice (LD50)” (po) were 416 mg/kg and 907 mg/kg, respectively.
